{"source": "patent US9068194B2", "about": "“Increasing plant growth by modulating omega-amidase expression in plants” (Los Alamos National Security, LLC, priority 2010, dated 2015)", "molecules": {"B1": {"name": "GPT/F:V mutant: mutant GPT from the natural Arabidopsis GPT, substituting V (valine) for the F (phenylalanine) residue in NLGQGFP; expressed in E. coli (protein)", "chain": "MYLDINGVMIKQFSFKASLLPFSSNFRQSSAKIHRPIGATMTTVSTQNESTQKPVQVAKRLEKFKTTIFTQMSILAVKHGAINLGQGVPNFDGPDFVKEAAIQAIKDGKNQYARGYGIPQLNSAIAARFREDTGLVVDPEKEVTVTSGCTEAIAAAMLGLINPGDEVILFAPFYDSYEATLSMAGAKVKGITLRPPDFSIPLEELKAAVTNKTRAILMNTPHNPTGKMFTREELETIASLCIENDVLVFSDEVYDKLAFEMDHISIASLPGMYERTVTMNSLGKTFSLTGWKIGWAIAPPHLTWGVRQAHSYLTFATSTPAQWAAVAALKAPESYFKELKRDYNVKKETLVKGLKEVGFTVFPSSGTYFVVADHTPFGMENDVAFCEYLIEEVGVVAIPTSVFYLNPEEGKNLVRFAFCKDEETLRGAIERMKQKLKRKV", "modifications": "synthetic Arabidopsis glutamine phenylpyruvate transaminase (GPT) mutant GPT/FV with V substitution in conserved region at position 88", "notes": "mutant GPT from the natural Arabidopsis GPT, substituting V (valine) for the F (phenylalanine) residue in NLGQGFP; expressed in E. coli"}}, "key": {"Ω-amidase in corn leaves": {"system": "Ω-amidase in corn leaves", "test": "Treatment of corn leaves with ω-amidase inhibitor DON (foliar spray)", "assay_type": "in vivo", "method": "(§1) HPLC Assay for 2-oxoglutaramate: HPLC was used to assay 2-oxoglutaramate, following a modification of Calderon et al., 1985, J Bacteriol 161(2): 807-809. Briefly, 2-oxoglutaramate was extracted from plant tissue in distilled de-ionized water acidified to less than pH 2.0 with HCl using a weight to volume ratio of 2:1. 2-Oxoglutaramate was detected and quantified by HPLC, using an ION-300 7.8 mm ID×30 cm L column, with a mobile phase in 0.01NH2SO4, a flow rate of approximately 0.2 ml/min, at 40° C. Injection volume is approximately 20 and retention time between about 38 and 39 minutes. Detection is achieved with 210 nm UV light. Authentic 2-oxoglutaramate was used to calibrate the assay.\n(§2) Ω-amidase activity was determined using the 96-well plate assay as described in Krasnikov et al., 2009, Analytical Biochemistry 391: 144-150.\n(§3) Columbia nutrient solution was utilized (Knight and Weissman, 1982, Plant Physiol. 70: 1683).\nPlants were grown in sand at 24° C. using a 16 hour/day light and 8 hour/day dark photoperiod. Seeds were germinated in the sand and allowed to grow for 9-14 days after seedling emergence. Seedlings (1 per 3 inch pot) were provided nutrients daily. The top of each pot was covered with Saran plastic film, with a slit cut to allow the seedlings room to emerge, in order to prevent treatment solution from reaching the soil. Leaves were treated by spraying DON treatment/nutrient solution twice daily. The DON treatment/nutrient solution contained 1 microgram/ml DON, 50 micoliters/liter SILWET L77 (a surfactant) and 0.02 vol/vol % glycerol (a humectant) at pH 6.3, dissolved in nutrient solution. Control plants were sprayed daily with the same solution without DON. An airbrush was used to apply the solutions until drip. Plants were sacrificed and analyzed for fresh weight, ω-amidase activity, and 2-oxoglutaramate concentrations in leaf and root tissue 14 days after initiation of treatment."}, "Ω-amidase in bean roots": {"system": "Ω-amidase in bean roots", "test": "Treatment of pole bean roots with ω-amidase inhibitor DON (hydroponic)", "assay_type": "in vivo", "method": "as §1, §2, §3\n(§4) Plants were grown hydroponically at 24° C. using a 16 hour/day light and 8 hour/day dark photoperiod. Seeds were first germinated and seedlings were grown for 9 days, at which time the individual seedlings were suspended with their roots in the nutrient solution (600 ml of nutrient, pH 6.3) in an 800 ml beaker covered with aluminum foil, with a slit for the seedlings, to prevent algal growth. The beakers were aerated with air provided by a small pump and delivered into the solution through a glass Pasteur pipette. For the treatments, DON was added to the nutrient solution to a final concentration of 1 microgram per ml. Thus DON was supplied continuously to the treated seedlings. The controls were grown in the same nutrient solution without DON. The solutions were refreshed every third day. Plants were sacrificed and analyzed for fresh weight, ω-amidase activity, and 2-oxoglutaramate concentrations in leaf and root tissue 14 days after initiation of treatment."}, "Ω-amidase in corn roots": {"system": "Ω-amidase in corn roots", "test": "Treatment of sweet corn roots with ω-amidase inhibitor DON (hydroponic)", "assay_type": "in vivo", "method": "as §1, §2, §3, §4"}, "[1]": {"system": "GPT (glutamine phenylpyruvate transaminase), substrate glutamine", "test": "Kinetic analysis of GPT substitution mutants expressed in E. coli", "assay_type": "biochemical, Arabidopsis", "settings": "enzyme expressed in E. coli", "method": "Maximal velocity was determined using the formula: Vmax=Kcat[E]tot. The apparent unimolecular rate constant kcat is also called turnover number and denotes the maximum number of enzymatic reactions catalyzed per second.\nThis mutant GPT enzyme may be expected to produce more product, the 2-oxoglutaramate, per unit time than the wild type GPT when the concentration of the substrate glutamine is present in millimolar or greater quantities, thus assuring that the […] is saturating."}, "[2]": {"settings": "leaf treatment with DON, average of treated plants"}, "[3]": {"settings": "leaves sprayed twice daily with 1 microgram/ml DON, 14 days (Table 17)"}, "[4]": {"settings": "bean, root treatment 1 microgram per ml DON, 14 days"}, "[5]": {"settings": "root treatment 1 microgram per ml DON, 14 days"}}, "note": "Several values for one entry are separate records, joined by “and”; a condition that tells them apart may be missing. Identical values can stand only once."}
{"molecule": "[N-]=[N+]=CC(=O)CC[C@H](N)C(=O)O", "note": "[DON, 6-diazo-5-oxo-nor-leucine]", "values": [{"measurement": "corn plant fresh weights versus untreated", "setting": "Ω-amidase in corn leaves; leaf treatment with DON", "value": "near doubling"}, {"measurement": "increase of 2-oxoglutaramate in leaves over untreated plants", "setting": "Ω-amidase in corn leaves; leaf treatment with DON", "value": "more than 7 fold"}, {"measurement": "leaf ω-amidase activity relative to untreated plants", "setting": "Ω-amidase in corn leaves; leaf treatment with DON", "value": "about 50%"}, {"measurement": "Amidase activity Leaf", "setting": "Ω-amidase in corn leaves; [2]", "value": 0.135, "unit": "μmole/gfw/hr"}, {"measurement": "Whole Plant Fresh Wt, Average", "setting": "Ω-amidase in corn leaves; [2]", "value": 21.4, "unit": "g"}, {"measurement": "2-Oxoglutaramate Concentration", "setting": "Ω-amidase in corn leaves; leaf treatment with DON, average of treated plants (Table 18)", "value": 838.8, "unit": "nmoles/gfwt"}, {"measurement": "Whole Plant Fresh Wt", "setting": "Ω-amidase in corn leaves; leaf treatment with DON, individual treated plants", "value": "20.9 g and 19.2 g and 24.3 g"}, {"measurement": "2-OGM LEAF", "setting": "Ω-amidase in corn leaves; [3]", "value": 753.9, "unit": "nmoles/gfwt"}, {"measurement": "2-OGM ROOT", "setting": "Ω-amidase in corn leaves; [3]", "value": 126.8, "unit": "nmoles/gfwt"}, {"measurement": "LEAF/ROOT RATIO (2-OGM)", "setting": "Ω-amidase in corn leaves; [3]", "value": 5.0}, {"measurement": "ω-amidase activity", "setting": "Ω-amidase in bean roots; bean, continuous DON treatment of roots", "value": "None of the DON treated plants had detectable levels of ω-amidase activity"}, {"measurement": "growth", "setting": "Ω-amidase in bean roots; bean, continuous DON treatment of roots, versus untreated control plants", "value": "severely stunted growth"}, {"measurement": "2-OGM LEAF", "setting": "Ω-amidase in bean roots; [4]", "value": 279, "unit": "nmoles/gfwt"}, {"measurement": "2-OGM ROOT", "setting": "Ω-amidase in bean roots; [4]", "value": 1586, "unit": "nmoles/gfwt"}, {"measurement": "LEAF/ROOT RATIO (2-OGM)", "setting": "Ω-amidase in bean roots; [4]", "value": 0.18}, {"measurement": "% INCREASE IN FWT", "setting": "Ω-amidase in bean roots; bean, roots in nutrient solution with 1 microgram per ml DON continuously, 14 days after initiation of treatment", "value": 198, "unit": "%"}, {"measurement": "increase of 2-oxoglutaramate in roots", "setting": "Ω-amidase in bean roots; beans, root treatment with DON, versus control", "value": 15, "unit": "fold"}, {"measurement": "ω-amidase activity", "setting": "Ω-amidase in corn roots; continuous DON treatment of roots", "value": "None of the DON treated plants had detectable levels of ω-amidase activity"}, {"measurement": "growth", "setting": "Ω-amidase in corn roots; continuous DON treatment of roots, versus untreated control plants", "value": "severely stunted growth"}, {"measurement": "2-OGM ROOT", "setting": "Ω-amidase in corn roots; [5]", "value": 2288, "unit": "nmoles/gfwt"}, {"measurement": "LEAF/ROOT RATIO (2-OGM)", "setting": "Ω-amidase in corn roots; [5]", "value": 0.13}, {"measurement": "2-OGM LEAF", "setting": "Ω-amidase in corn roots; root treatment 1 microgram per ml DON, 14 days, 2-OGM = 2-oxoglutaramate", "value": 300, "unit": "nmoles/gfwt"}, {"measurement": "increase of 2-oxoglutaramate in roots", "setting": "Ω-amidase in corn roots; root treatment with DON, versus control", "value": "over 30 fold"}, {"measurement": "% INCREASE IN FWT", "setting": "Ω-amidase in corn roots; roots in nutrient solution with 1 microgram per ml DON continuously, 14 days after initiation of treatment", "value": 174, "unit": "%"}]}
{"molecule": "B1", "values": [{"measurement": "Km", "setting": "[1]", "value": 750, "unit": "µM"}, {"measurement": "increase of Vmax over the wild type", "setting": "[1]", "value": 20, "unit": "%"}, {"measurement": "Vmax", "setting": "[1]; same amount of protein", "value": 6.04}]}
